This experiment deals with KM12 cells. In words: Cell viability assay (CellTiter-Glo) in KM12 cells. As to conditions: Homo sapiens, 72 h; Table 3; KM12 cell viability, CellTiter-Glo, 3 days; read-out: IC50. The class given is cell-based.
In the case of `O=C(CN1CCN(c2cccc(-c3cnc4ccc(N5CCC[C@@H]5c5cccc(F)c5)nn34)n2)CC1)NCCCCCNc1cccc2c1C(=O)N(C1CCC(=O)NC1=O)C2=O` (stereo partly drawn) [TR-103, N-(5-((2-(2,6-dioxopiperidin-3-yl)-1,3-dioxoisoindolin-4-yl)amino)pentyl)-2-(4-(6-(6-((R)-2-(3-fluorophenyl)pyrrolidin-1-yl)imidazo[1,2-b]pyridazin-3-yl)pyridin-2-yl)piperazin-1-yl)acetamide], the IC50 turned out to be 13.5 nM.
As to `O=C(CN1CCN(c2cccc(-c3cnc4ccc(N5CCC[C@@H]5c5cccc(F)c5)nn34)n2)CC1)NCCOCCOCCOCCOCCOCCNc1cccc2c1C(=O)N(C1CCC(=O)NC1=O)C2=O` (stereo partly drawn) [TR-104, N-(17-((2-(2,6-dioxopiperidin-3-yl)-1,3-dioxoisoindolin-4-yl)amino)-3,6,9,12,15-pentaoxaheptadecyl)-2-(4-(6-(6-((R)-2-(3-fluorophenyl)pyrrolidin-1-yl)imidazo[1,2-b]pyridazin-3-yl)pyridin-2-yl)piperazin-1-yl)acetamide], the IC50 was 8.1 nM.
Then `O=C(CN1CCN(c2cccc(-c3cnc4ccc(N5CCC[C@@H]5c5cccc(F)c5)nn34)n2)CC1)NCCOCCOCCNc1cccc2c1C(=O)N(C1CCC(=O)NC1=O)C2=O` (stereo partly drawn) [TR-105, N-(2-(2-(2-((2-(2,6-dioxopiperidin-3-yl)-1,3-dioxoisoindolin-4-yl)amino)ethoxy)ethoxy)ethyl)-2-(4-(6-(6-((R)-2-(3-fluorophenyl)pyrrolidin-1-yl)imidazo[1,2-b]pyridazin-3-yl)pyridin-2-yl)piperazin-1-yl)acetamide], with 10.1 nM.
With `O=C(CN1CCN(c2cccc(-c3cnc4ccc(N5CCC[C@@H]5c5cccc(F)c5)nn34)n2)CC1)NCCOCCNc1cccc2c1C(=O)N(C1CCC(=O)NC1=O)C2=O` (stereo partly drawn) [TR-106, N-(2-(2-((2-(2,6-dioxopiperidin-3-yl)-1,3-dioxoisoindolin-4-yl)amino)ethoxy)ethyl)-2-(4-(6-(6-((R)-2-(3-fluorophenyl)pyrrolidin-1-yl)imidazo[1,2-b]pyridazin-3-yl)pyridin-2-yl)piperazin-1-yl)acetamide], the IC50 worked out at 3.8 nM.
`O=C(CN1CCN(c2cccc(-c3cnc4ccc(N5CCC[C@@H]5c5cccc(F)c5)nn34)n2)CC1)NCCCCNc1cccc2c1C(=O)N(C1CCC(=O)NC1=O)C2=O` (stereo partly drawn) [TR-107, N-(4-((2-(2,6-dioxopiperidin-3-yl)-1,3-dioxoisoindolin-4-yl)amino)butyl)-2-(4-(6-(6-((R)-2-(3-fluorophenyl)pyrrolidin-1-yl)imidazo[1,2-b]pyridazin-3-yl)pyridin-2-yl)piperazin-1-yl)acetamide]: the IC50 came to 8.4 nM.
Regarding `O=C(CN1CCN(c2cccc(-c3cnc4ccc(N5CCC[C@@H]5c5cccc(F)c5)nn34)n2)CC1)NCCOCCOCCOCCOCCNc1cccc2c1C(=O)N(C1CCC(=O)NC1=O)C2=O` (stereo partly drawn) [TR-108, N-(14-((2-(2,6-dioxopiperidin-3-yl)-1,3-dioxoisoindolin-4-yl)amino)-3,6,9,12-tetraoxatetradecyl)-2-(4-(6-(6-((R)-2-(3-fluorophenyl)pyrrolidin-1-yl)imidazo[1,2-b]pyridazin-3-yl)pyridin-2-yl)piperazin-1-yl)acetamide], the IC50 is 4 nM.
Then `O=C(CN1CCN(c2cccc(-c3cnc4ccc(N5CCC[C@@H]5c5cccc(F)c5)nn34)n2)CC1)NCCCNc1cccc2c1C(=O)N(C1CCC(=O)NC1=O)C2=O` (stereo partly drawn) [TR-109, N-(3-((2-(2,6-dioxopiperidin-3-yl)-1,3-dioxoisoindolin-4-yl)amino)propyl)-2-(4-(6-(6-((R)-2-(3-fluorophenyl)pyrrolidin-1-yl)imidazo[1,2-b]pyridazin-3-yl)pyridin-2-yl)piperazin-1-yl)acetamide], with 3.6 nM; and `O=C(CN1CCN(c2cccc(-c3cnc4ccc(N5CCC[C@@H]5c5cccc(F)c5)nn34)n2)CC1)NCCCCCCCNc1cccc2c1C(=O)N(C1CCC(=O)NC1=O)C2=O` (stereo partly drawn) [TR-110, N-(7-((2-(2,6-dioxopiperidin-3-yl)-1,3-dioxoisoindolin-4-yl)amino)heptyl)-2-(4-(6-(6-((R)-2-(3-fluorophenyl)pyrrolidin-1-yl)imidazo[1,2-b]pyridazin-3-yl)pyridin-2-yl)piperazin-1-yl)acetamide], with 35.9 nM.
On to `O=C(CN1CCN(c2cccc(-c3cnc4ccc(N5CCC[C@@H]5c5cccc(F)c5)nn34)n2)CC1)NCCCCCCNc1cccc2c1C(=O)N(C1CCC(=O)NC1=O)C2=O` (stereo partly drawn) [TR-111, N-(6-((2-(2,6-dioxopiperidin-3-yl)-1,3-dioxoisoindolin-4-yl)amino)hexyl)-2-(4-(6-(6-((R)-2-(3-fluorophenyl)pyrrolidin-1-yl)imidazo[1,2-b]pyridazin-3-yl)pyridin-2-yl)piperazin-1-yl)acetamide], for which the IC50 turned out to be 19.7 nM.
As to `O=C1CCC(N2C(=O)c3ccc(NCCOCCOCCC(=O)N4CCN(c5cccc(-c6cnc7ccc(N8CCC[C@@H]8c8cccc(F)c8)nn67)n5)CC4)cc3C2=O)C(=O)N1` (stereo partly drawn) [TR-113, 2-(2,6-Dioxopiperidin-3-yl)-5-((2-(2-(3-(4-(6-(6-((R)-2-(3-fluorophenyl)pyrrolidin-1-yl)imidazo[1,2-b]pyridazin-3-yl)pyridin-2-yl)piperazin-1-yl)-3-oxopropoxy)ethoxy)ethyl)amino)isoindoline-1,3-dione], the IC50 was 1.3 nM.
As to `O=C1CCC(N2C(=O)c3ccc(NCCOCCOCCOCCC(=O)N4CCN(c5cccc(-c6cnc7ccc(N8CCC[C@@H]8c8cccc(F)c8)nn67)n5)CC4)cc3C2=O)C(=O)N1` (stereo partly drawn) [TR-114, 2-(2,6-Dioxopiperidin-3-yl)-5-((2-(2-(2-(3-(4-(6-(6-((R)-2-(3-fluorophenyl)pyrrolidin-1-yl)imidazo[1,2-b]pyridazin-3-yl)pyridin-2-yl)piperazin-1-yl)-3-oxopropoxy)ethoxy)ethoxy)ethyl)amino)isoindoline-1,3-dione], the IC50 is 16.9 nM.
As to `O=C1CCC(N2C(=O)c3ccc(NCCCCC(=O)N4CCN(c5cccc(-c6cnc7ccc(N8CCC[C@@H]8c8cccc(F)c8)nn67)n5)CC4)cc3C2=O)C(=O)N1` (stereo partly drawn) [TR-115, 2-(2,6-Dioxopiperidin-3-yl)-5-((5-(4-(6-(6-((R)-2-(3-fluorophenyl)pyrrolidin-1-yl)imidazo[1,2-b]pyridazin-3-yl)pyridin-2-yl)piperazin-1-yl)-5-oxopentyl)amino)isoindoline-1,3-dione], the IC50 was found to be 0.9 nM.
In the case of `O=C1CCC(N2C(=O)c3ccc(NCCOCCOCCOCCOCCOCCC(=O)N4CCN(c5cccc(-c6cnc7ccc(N8CCC[C@@H]8c8cccc(F)c8)nn67)n5)CC4)cc3C2=O)C(=O)N1` (stereo partly drawn) [TR-116, 2-(2,6-Dioxopiperidin-3-yl)-5-((18-(4-(6-(6-((R)-2-(3-fluorophenyl)pyrrolidin-1-yl)imidazo[1,2-b]pyridazin-3-yl)pyridin-2-yl)piperazin-1-yl)-18-oxo-3,6,9,12,15-pentaoxaoctadecyl)amino)isoindoline-1,3-dione], the IC50 stood at 2 nM.
For the molecule `O=C1CCC(N2C(=O)c3ccc(NCCCCCCC(=O)N4CCN(c5cccc(-c6cnc7ccc(N8CCC[C@@H]8c8cccc(F)c8)nn67)n5)CC4)cc3C2=O)C(=O)N1` (stereo partly drawn) [TR-117, 2-(2,6-Dioxopiperidin-3-yl)-5-((7-(4-(6-(6-((R)-2-(3-fluorophenyl)pyrrolidin-1-yl)imidazo[1,2-b]pyridazin-3-yl)pyridin-2-yl)piperazin-1-yl)-7-oxoheptyl)amino)isoindoline-1,3-dione], the IC50 was determined as 4.3 nM.
Take `O=C1CCC(N2C(=O)c3ccc(NCCCCCCCC(=O)N4CCN(c5cccc(-c6cnc7ccc(N8CCC[C@@H]8c8cccc(F)c8)nn67)n5)CC4)cc3C2=O)C(=O)N1` (stereo partly drawn) [TR-118, 2-(2,6-Dioxopiperidin-3-yl)-5-((8-(4-(6-(6-((R)-2-(3-fluorophenyl)pyrrolidin-1-yl)imidazo[1,2-b]pyridazin-3-yl)pyridin-2-yl)piperazin-1-yl)-8-oxooctyl)amino)isoindoline-1,3-dione]: the IC50 was determined as 6.3 nM.
Regarding `O=C1CCC(N2C(=O)c3ccc(NCCOCCC(=O)N4CCN(c5cccc(-c6cnc7ccc(N8CCC[C@@H]8c8cccc(F)c8)nn67)n5)CC4)cc3C2=O)C(=O)N1` (stereo partly drawn) [TR-119, 2-(2,6-Dioxopiperidin-3-yl)-5-((2-(3-(4-(6-(6-((R)-2-(3-fluorophenyl)pyrrolidin-1-yl)imidazo[1,2-b]pyridazin-3-yl)pyridin-2-yl)piperazin-1-yl)-3-oxopropoxy)ethyl)amino)isoindoline-1,3-dione], the IC50 was determined as 1.6 nM.
Take `O=C1CCC(N2C(=O)c3ccc(NCCOCCOCCOCCOCCC(=O)N4CCN(c5cccc(-c6cnc7ccc(N8CCC[C@@H]8c8cccc(F)c8)nn67)n5)CC4)cc3C2=O)C(=O)N1` (stereo partly drawn) [TR-120, 2-(2,6-Dioxopiperidin-3-yl)-5-((15-(4-(6-(6-((R)-2-(3-fluorophenyl)pyrrolidin-1-yl)imidazo[1,2-b]pyridazin-3-yl)pyridin-2-yl)piperazin-1-yl)-15-oxo-3,6,9,12-tetraoxapentadecyl)amino)isoindoline-1,3-dione]: the IC50 came to 10 nM.
Regarding `O=C1CCC(N2C(=O)c3ccc(NCCC(=O)N4CCN(c5cccc(-c6cnc7ccc(N8CCC[C@@H]8c8cccc(F)c8)nn67)n5)CC4)cc3C2=O)C(=O)N1` (stereo partly drawn) [TR-121, 2-(2,6-Dioxopiperidin-3-yl)-5-((3-(4-(6-(6-((R)-2-(3-fluorophenyl)pyrrolidin-1-yl)imidazo[1,2-b]pyridazin-3-yl)pyridin-2-yl)piperazin-1-yl)-3-oxopropyl)amino)isoindoline-1,3-dione], the IC50 was 2.1 nM.
For the molecule `O=C1CCC(N2C(=O)c3ccc(NCCCCCC(=O)N4CCN(c5cccc(-c6cnc7ccc(N8CCC[C@@H]8c8cccc(F)c8)nn67)n5)CC4)cc3C2=O)C(=O)N1` (stereo partly drawn) [TR-122, 2-(2,6-Dioxopiperidin-3-yl)-5-((6-(4-(6-(6-((R)-2-(3-fluorophenyl)pyrrolidin-1-yl)imidazo[1,2-b]pyridazin-3-yl)pyridin-2-yl)piperazin-1-yl)-6-oxohexyl)amino)isoindoline-1,3-dione], the IC50 turned out to be 2.7 nM.
On to `O=C(CN1CCN(c2cccc(-c3cnc4ccc(N5CCC[C@@H]5c5cccc(F)c5)nn34)n2)CC1)NCCCCNc1ccc2c(c1)C(=O)N(C1CCC(=O)NC1=O)C2=O` (stereo partly drawn) [TR-124, N-(4-((2-(2,6-dioxopiperidin-3-yl)-1,3-dioxoisoindolin-5-yl)amino)butyl)-2-(4-(6-(6-((R)-2-(3-fluorophenyl)pyrrolidin-1-yl)imidazo[1,2-b]pyridazin-3-yl)pyridin-2-yl)piperazin-1-yl)acetamide], for which the IC50 is 2.8 nM.

The record behind these values is patent US12065442B2, “Tropomyosin receptor kinase (TRK) degradation compounds and methods of use” (Cullgen (Shanghai), Inc., priority 2018, dated 2024).
